Test results from US11639348B2, “Compositions and methods for neuraminidase detection and quantification” (priority 2018, dated 2023).
Entries after “also recorded” stand apart in the source; their conditions may differ.

Assays:
[1] = molecular target: influenza N2 subtype neuraminidase from A/Hong Kong/1/68 (H3N2) (Influenza A virus, UniProt Q91MA2); format: biochemical, influenza A/Hong Kong/1/68 (H3N2); conditions: pH 7.6
[2] = molecular target: sialidase from Micromonospora viridifaciens (NedA) (Micromonospora viridifaciens, UniProt Q02834); format: biochemical
Sequence of sialidase from Micromonospora viridifaciens (NedA) (Q02834 38-647): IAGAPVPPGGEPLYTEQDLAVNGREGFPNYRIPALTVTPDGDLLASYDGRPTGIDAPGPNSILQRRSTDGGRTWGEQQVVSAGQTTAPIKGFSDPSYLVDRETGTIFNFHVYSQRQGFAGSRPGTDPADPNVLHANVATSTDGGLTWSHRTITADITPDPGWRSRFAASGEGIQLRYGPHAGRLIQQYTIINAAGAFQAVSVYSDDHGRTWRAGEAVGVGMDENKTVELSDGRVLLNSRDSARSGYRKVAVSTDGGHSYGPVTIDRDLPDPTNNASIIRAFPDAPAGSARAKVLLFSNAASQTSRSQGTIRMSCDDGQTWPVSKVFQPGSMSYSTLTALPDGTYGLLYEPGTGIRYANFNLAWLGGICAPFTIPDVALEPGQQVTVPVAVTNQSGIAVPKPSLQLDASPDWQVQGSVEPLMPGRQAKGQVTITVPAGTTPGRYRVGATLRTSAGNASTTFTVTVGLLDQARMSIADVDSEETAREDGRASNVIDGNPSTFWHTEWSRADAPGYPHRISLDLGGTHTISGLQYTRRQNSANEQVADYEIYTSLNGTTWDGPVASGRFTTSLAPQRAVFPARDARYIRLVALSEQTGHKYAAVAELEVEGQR

[3] = Spontaneous hydrolysis of stock solution
[4] = test system: NA activity of virus; format: biochemical
[5] = test system: CC(=O)NC1C(NC(=N)N)C(F)C(Oc2c(F)cc3c(C)cc(=O)oc3c2F)(C(=O)O)OC1[C@H](O)[C@H](O)CO; assay: purified protein, by the assay type; conditions: pH 7.6; 30.0 °C
[6] = test system: influenza virus NAs; format: biochemical
[7] = test system: influenza B NAs; format: biochemical
[8] = molecular target: NA of A/WS/33 (H1N1) influenza virus (Influenza A virus, UniProt P03470); format: biochemical, influenza A/WS/33 (H1N1)
Sequence of NA of A/WS/33 (H1N1) influenza virus (P03470 whole entry, looked up): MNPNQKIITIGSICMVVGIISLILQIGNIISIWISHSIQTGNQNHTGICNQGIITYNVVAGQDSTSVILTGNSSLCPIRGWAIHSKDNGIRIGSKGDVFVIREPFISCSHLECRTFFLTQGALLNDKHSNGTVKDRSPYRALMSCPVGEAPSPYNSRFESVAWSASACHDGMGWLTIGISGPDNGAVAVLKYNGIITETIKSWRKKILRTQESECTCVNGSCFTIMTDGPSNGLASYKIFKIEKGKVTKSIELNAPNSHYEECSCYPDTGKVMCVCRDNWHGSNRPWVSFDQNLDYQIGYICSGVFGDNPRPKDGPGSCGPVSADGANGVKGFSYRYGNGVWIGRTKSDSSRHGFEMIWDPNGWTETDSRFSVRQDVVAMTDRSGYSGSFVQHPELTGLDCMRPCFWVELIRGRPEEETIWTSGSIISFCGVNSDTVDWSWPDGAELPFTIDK

[9] = test system: A/Brisbane/59/2007 H1N1 NA; format: biochemical, influenza A/Brisbane/59/2007 H1N1; conditions: pH 7.6
[10] = test system: A/California/07/2009 H1N1 NA; format: biochemical, influenza A/California/07/2009 H1N1; conditions: pH 7.6
[11] = test system: A/Washington/10/2008 H1N1 NA; format: biochemical, influenza A/Washington/10/2008 H1N1; conditions: pH 7.6
[12] = test system: B/Florida/04/2006 NA; format: biochemical, influenza B/Florida/04/2006; conditions: pH 7.6
[13] = test system: B/Hong Kong/05/1972 NA; format: biochemical, influenza B/Hong Kong/05/1972; conditions: pH 7.6

Sequence of influenza N2 subtype neuraminidase from A/Hong Kong/1/68 (H3N2) (Q91MA2 whole entry, looked up): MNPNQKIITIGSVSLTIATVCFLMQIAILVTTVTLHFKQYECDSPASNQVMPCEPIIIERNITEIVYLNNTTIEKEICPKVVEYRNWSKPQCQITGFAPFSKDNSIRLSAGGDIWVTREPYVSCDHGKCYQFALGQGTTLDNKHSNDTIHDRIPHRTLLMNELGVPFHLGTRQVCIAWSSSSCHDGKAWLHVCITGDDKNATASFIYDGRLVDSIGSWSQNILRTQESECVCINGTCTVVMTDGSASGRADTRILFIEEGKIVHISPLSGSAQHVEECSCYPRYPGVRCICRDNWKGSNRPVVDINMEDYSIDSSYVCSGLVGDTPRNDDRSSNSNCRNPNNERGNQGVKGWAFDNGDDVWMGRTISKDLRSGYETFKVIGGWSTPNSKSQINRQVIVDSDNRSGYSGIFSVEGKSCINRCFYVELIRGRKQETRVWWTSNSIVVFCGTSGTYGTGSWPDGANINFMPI

Which “burst and turnover on titration of N2” value [1] does the source give for CC(=O)NC1C(N)C(F)C(Oc2c(F)cc3c(C)cc(=O)oc3c2F)(C(=O)O)OC1[C@H](O)[C@H](O)CO (stereo partly drawn) [compound 2, 5-Acetamido-4-amino-3-fluoro-3,4,5-trideoxy-2α-(4-methyl-6,8-difluoromethylumbelliferyl)-D-glycero-D-galactononulopyranosylnoic acid] here?
The value was “produced a burst, but significant turnover was still observed”.

Which “NedA concentration down to which burst size vs concentration is linear” value [2] does the source give for CC(=O)NC1C(O)C(F)C(Oc2c(F)cc3c(C)cc(=O)oc3c2F)(C(=O)O)OC1[C@H](O)[C@H](O)CO (stereo partly drawn) [compound 1, 5-Acetamido-3-fluoro-3,5-dideoxy-2α-(4-methyl-6,8-difluoromethylumbelli-feryl)-D-glycero-D-galactononulopyranosylnoic Acid] here?
Its value is ≤ 0.7 nM.

And the “fluorescence response on titration of NedA (burst and turnover)” value ([2]; pH 7.6)?
Its value is “a classical burst phase of increased fluorescence was observed, followed by a steady-state phase”.

And the “burst and turnover on titration of N2” value [1]?
The value was “a burst was indeed seen, but significant turnover was also observed”.

What about the “stability of stock solution” value [3] of the same compound?
Its value is “undergoes slow spontaneous hydrolysis”.

Which “effect on NA activity compared to live virus” value [4] does the source give for O=C1CCO1 [β-propiolactone] here?
The value was “significantly reduced NA activities; also recorded: dramatically reduced NA activities”.

Which results are given for “(Influenza A virus (A/Hong Kong/1/1968(H3N2)))”?
Km [5]: 45.6 µM; kcat [5]: 76.7 s⁻¹; kcat/Km [5]: 1.68e+06 M⁻¹ s⁻¹

Which “response on incubation with GH33 sialidase NedA” value [2] does the source give for CC(=O)NC1C(NC(=N)N)C(F)C(Oc2c(F)cc3c(C)cc(=O)oc3c2F)(C(=O)O)OC1[C@H](O)[C@H](O)CO (stereo partly drawn) [compound 3, 5-Acetamido-4-guanidine-3-fluoro-3,4,5-trideoxy-2α-(4-methyl-6,8-difluoromethylumbelliferyl)-D-glycero-D-galactononulopyranosylnoic acid] here?
Its value is “no significant response”.

What about the “burst and turnover on titration of N2” value [1] of the same compound?
The value was “no detectable turnover at all, while a rapid initial burst was observed”.

What about the “time to reach plateau of titration” value [6] of the same compound?
The value was “about 30 min”.

What about the time to inactivation [7] of the same compound?
Its time to inactivation is “within several seconds”.

What about the “NA concentration down to which reliable data are given” value [8] of the same compound?
Its value is “approximately 200 pM”.

What about the “burst, F2Mu released” value [8] of the same compound?
The value was 27 nM.

And the “initial concentration of NA in the original virus sample” value [8]?
Its value is 1.08 µM.

What about the Km [9] of the same compound?
The Km was 41.1 µM.

What about the kcat [9] of the same compound?
Its kcat is 32.6 s⁻¹.

What about the Km [10] of the same compound?
The Km was 31.9 µM.

And the kcat [10]?
Its kcat is 76.4 s⁻¹.

And the Km [11]?
The Km was 62.2 µM.

What about the kcat [11] of the same compound?
Its kcat is 63.3 s⁻¹.

And the Km [12]?
Its Km is 28.6 µM.

And the kcat [12]?
The kcat was 26.7 s⁻¹.

What about the Km [13] of the same compound?
The Km was 29.6 µM.

And the kcat [13]?
Its kcat is 30.0 s⁻¹.

Which “effect on NA activity compared to live virus” value [4] does the source give for nonyl phenoxypolyethoxylethanol [NP40] here?
Its value is “did not affect the NA activity; also recorded: did not affect the NA activities”.
